Structures are written as SMILES.

Results on one compound are retold here after ChEMBL document CHEMBL5338765, “Discovery of Potent and Wild-Type-Sparing Fourth-Generation EGFR Inhibitors for Treatment of Osimertinib-Resistance NSCLC” (J Med Chem, 2023).

Data set [1] is described as follows: in vivo. Particulars: Sprague-Dawley, rat, iv, 1 mg/kg.
The nature of data set [2]: in vivo. Particulars: Sprague-Dawley, rat, po, 10 mg/kg.
Data set [3] is described as follows: in vivo. Particulars: Sprague-Dawley, rat, iv, 1 mg/kg. This is another data set of the same source.
The nature of data set [4]: in vivo. Particulars: Sprague-Dawley, rat, po, 10 mg/kg. This is another data set of the same source.
Data set [5] in a line: in vivo. Particulars: Sprague-Dawley, rat, iv, 1 mg/kg. This is another data set of the same source.
The nature of data set [6]: in vivo. The conditions noted are these: Sprague-Dawley, rat, po, 10 mg/kg. This is another data set of the same source.
Data set [7] can be described thus: in vivo. Particulars: Sprague-Dawley, rat, iv, 1 mg/kg. This is another data set of the same source.
Data set [8] in a line: in vivo. Particulars: Sprague-Dawley, rat, po, 10 mg/kg. This is another data set of the same source.
Data set [9] in a line: in vivo. The conditions noted are these: Sprague-Dawley, rat, iv, 1 mg/kg. The source holds these as a separate data set.
A short description of data set [10]: in vivo. The conditions noted are these: Sprague-Dawley, rat, po, 10 mg/kg. The source holds these as a separate data set.
Data set [11] can be described thus: in vivo. Particulars: Sprague-Dawley, rat, iv, 1 mg/kg. The source holds these as a separate data set.
The nature of data set [12]: in vivo. Particulars: Sprague-Dawley, rat, po, 10 mg/kg. This is another data set of the same source.
Data set [13] can be described thus: in vivo. The conditions noted are these: Sprague-Dawley, rat, po, 10 mg/kg. This is another data set of the same source.

For the compound `CCS(=O)(=O)n1cc(-c2nc(Nc3ccc4c(ccn4CCN(C)C)c3)ncc2C(F)(F)F)c2ccccc21`, the maximum concentration (Cmax) at 24 h in the data set “in vivo [1]” was found to be 130 ng/mL; in “in vivo [2]”, 54.7 ng/mL. In addition, the AUC(0-inf) at 24 h in “in vivo [3]” turned out to be 242 ng·h/mL; in “in vivo [4]”, 678 ng·h/mL. The figures for the mean residence time MRT inf at 24 h in “in vivo [5]” and in “in vivo [6]” were 4.33 h and 9.62 h, respectively. Moreover, the time to peak (Tmax) at 24 h came out at 4.8 min in “in vivo [7]” and 8 h in “in vivo [8]”. For the same compound, the half-life at 24 h was 3.67 h in the data set “in vivo [9]” and 5.37 h in “in vivo [10]”. Moreover, in the data set “in vivo [11]”, the clearance at 24 h is 70.2 mL/min/kg. The compound further gave a CL/F at 24 h in “in vivo [12]” of 278 mL/min/kg. The same compound registered a bioavailability at 24 h in “in vivo [13]” of 28.1%.
